Reference: patent US10195208B2, “Combination therapy” (Novartis AG, priority 2014, dated 2019)
Several values for one entry are separate records, joined by “and”; a condition that tells them apart may be missing. Equal values may be shown once.

Tests used:
[1] = system: Compound A resistant NSCLC HCC827 tumor; test: Efficacy study in Compound A resistant HCC827 mouse xenograft model (GNF-11-308-138); format: in vivo, SCID beige mice; details: for Individual tumor volume: single animals; for Tumor volume, group Mean: n=6; for Mean initial Tumor Volume (mm^3 ± SE): initial day of dosing
[2] = system: EGFR and cMET phosphorylation; test: Acute PD western blot of pEGFR and pMET in resistant NCI-HCC827 tumors; format: in vivo, SCID beige mice; details: single dose; Compound A 30 mg/kg, INC280 10 mg/kg; tumors taken 6 hours post dose
Description: SCID beige mice bearing the Erlotinib resistant tumors (Animals 2-5), n=1 per group, a total of 4 groups and randomized 50 days post tumor fragment implantation with an average tumor volume of 1236.18 mm^3 and SD of 316.57 mm^3. Compound A resistant HCC827 tumors ([…]) were randomized into 4 groups (n=3 mice per group) 24 days post tumor fragment implantation with an average tumor volume of 963.24 mm^3 with SD 179.56 mm^3. Animals in each group received once daily oral administration of Compound A at 30 mg/kg or twice daily INC280-AA-3 at 10 mg/kg alone or in combination.
Evaluation of target inhibition of pEGFR and pMET were done by western blot analysis. 40 […] of tumor lysate proteins were electrophoresed per sample using Criterion 4-12% Bis-Tris gels (Bio-Rad, Cat #345-0124). Upon completion of protein transfer, membranes were incubated with 5% BSA (Sigma) in TBST (25 mM Tris, 150 mM NaCl, 0.1% Tween-20) for 1 h at room temperature to block non-specific binding. […]

[3] = Tolerability (body weight) in Compound A resistant HCC827 mouse xenograft model; details: for Final BW (g) mean ± SD: day 14; for BW (%) mean, percent body weight change: day 14 versus day of treatment initiation
Method: INC280-AA-3 was formulated in 0.25% MC (methylcellulose) 0.05% Tween 80 in water, solution. […] Animals were weighed on dosing days and doses were body weight adjusted. Tumor volumes were measured by digital caliper 3 times a week and body weights of all animals were recorded throughout the study.
Body weight was monitored daily and the % change in body weight was calculated as (BWcurrent−BWinitial)/(BWinitial)×100. Data is presented as percent body weight change from the day of treatment initiation.

HCC827 = test: Cell proliferation assay (CellTiter-Glo), dose matrix combination, HCC827 parental; format: cell-based, human; details: HCC827 parental line, 72 hours
Method: HCC827 was obtained from ATCC. HCC827 GR5 (resistant to Gefitinib) was obtained from Jeff Engleman lab at Massachusetts General Hospital. Both cells were cultured in RPMI-1640 (ATCC, #30-2001) with 10% FBS (Thermo scientific, #SH30071.03) and maintained in a 37° C., 5% CO2 incubator. Cells were passaged twice a week using TrypLE™ Express (Invitrogen, #12604-013), an animal origin-free recombinant enzyme used for dissociating adherent mammalian cells compare to the regular trypsin.
Cell viability was determined by measuring cellular ATP content using the CellTiter-Glo® (CTG) luminescent cell viability assay (Promega #G7573) according to the manufacturer's protocol. […] At the end of the drug treatment, 100 ul CTG reagent was added to each well to lyse the cells, and luminescence signals were recorded in the Envision plate reader (Perkin Elmer).
To evaluate the combination effect in a non-bias way and to identify synergistic effect at all possible concentrations, the combination studies were conducted with a “dose matrix”, where a combination is tested in all possible permutations of serially-diluted compounds. […] The synergistic interaction was analyzed using Chalice software (CombinatoRx, Cambridge Mass.). Synergy was calculated by comparing a combination's response to those of its single agents, against the drug-with-itself dose-additive reference model. […]

[4] = day 0 post dosing (day 22 post implant)
[5] = day 2 post dosing (day 24 post implant)
[6] = day 5 post dosing (day 27 post implant)
[7] = day 7 post dosing (day 29 post implant)
[8] = day 9 post dosing (day 31 post implant)
[9] = day 12 post dosing (day 34 post implant)
[10] = day 14, Compound A 30 mg/kg QD, INC280 10 mg/kg BID, oral
[11] = day 14 post dosing (day 36 post implant)
[12] = Compound A 30 mg/kg QD, INC280 10 mg/kg BID, oral
[13] = Compound A 30 mg/kg QD, INC280 10 mg/kg BID

Row | Compound | Individual tumor volume [1, 4] | Tumor volume, group Mean ([1]; day 0 post dosing) [mm^3] | Individual tumor volume [1, 5] | Tumor volume, group Mean ([1]; day 2 post dosing) [mm^3] | Individual tumor volume [1, 6] | Tumor volume, group Mean ([1]; day 5 post dosing) [mm^3] | Individual tumor volume [1, 7] | Tumor volume, group Mean ([1]; day 7 post dosing) [mm^3] | Individual tumor volume [1, 8] | Tumor volume, group Mean ([1]; day 9 post dosing) [mm^3] | Individual tumor volume [1, 9] | Tumor volume, group Mean ([1]; day 12 post dosing) [mm^3] | Mean final Tumor Volume (mm^3 ± SE) [1, 10] [mm^3] | Individual tumor volume [1, 11] | Tumor volume, group Mean ([1]; day 14 post dosing) [mm^3] | Mean initial Tumor Volume (mm^3 ± SE) [1, 12] [mm^3] | inhibition of EGFR and cMET phosphorylation in tumor lysates (western) [2] | Final BW (g) mean ± SD [3, 13] [g] | BW (%) mean, percent body weight change [3] [%] | Initial BW (g) mean ± SD [3, 13] [g] | other results
1 | Cc1cc(C(=O)Nc2nc3cccc(Cl)c3n2[C@@H]2CCCCN(C(=O)/C=C/CN(C)C)C2)ccn1 [Compound A, (R,E)-N-(7-chloro-1-(1-(4-(dimethylamino)but-2-enoyl)azepan-3-yl)-1H-benzo[d]imidazol-2-yl)-2-methylisonicotinamide] | 470.34 mm^3 and 502.24 mm^3 and 547.37 mm^3 and 597.98 mm^3 and 657.77 mm^3 and 694.21 mm^3 | 578.32 | 425.76 mm^3 and 474.70 mm^3 and 500.47 mm^3 and 718.94 mm^3 and 679.81 mm^3 and 723.63 mm^3 | 587.22 | 447.17 mm^3 and 509.01 mm^3 and 478.72 mm^3 and 709.28 mm^3 and 723.82 mm^3 and 730.32 mm^3 | 599.72 | 641.63 mm^3 and 591.63 mm^3 and 523.15 mm^3 and 792.15 mm^3 and 837.06 mm^3 and 800.58 mm^3 | 697.70 | 595.65 mm^3 and 822.67 mm^3 and 611.23 mm^3 and 877.37 mm^3 and 891.82 mm^3 and 940.84 mm^3 | 789.93 | 932.76 mm^3 and 885.77 mm^3 and 742.37 mm^3 and 1125.55 mm^3 and 1019.63 mm^3 and 1028.22 mm^3 | 955.72 | 1063.26 ± 93.45 | 882.62 mm^3 and 1115.99 mm^3 and 727.98 mm^3 and 1076.46 mm^3 and 1368.14 mm^3 and 1208.36 mm^3 | 1063.26 | 578.32 ± 35.84 | selective depletion of pEGFR and pMET expression | 22.58 ± 1.00 | 5.39 | 21.43 ± 0.77 | anti-tumor activity in words ([1]; 14 days, Compound A 30 mg/kg QD, INC280 10 mg/kg BID, oral, versus vehicle): not significantly different from vehicle; single agent response, cell viability (HCC827): only respond to Compound A
2 | CNC(=O)c1ccc(-c2cnc3ncc(Cc4ccc5ncccc5c4)n3n2)cc1F [INC280, 2-fluoro-N-methyl-4-[(7-quinolin-6-yl-methyl)-imidazo[1,2-b]triazin-2-yl]benzamide] | 456.20 mm^3 and 520.06 mm^3 and 543.63 mm^3 and 640.13 mm^3 and 655.67 mm^3 and 713.33 mm^3 | 588.17 | 531.11 mm^3 and 641.24 mm^3 and 502.64 mm^3 and 784.24 mm^3 and 667.19 mm^3 and 674.14 mm^3 | 633.43 | 869.50 mm^3 and 753.37 mm^3 and 556.93 mm^3 and 822.50 mm^3 and 628.26 mm^3 and 834.83 mm^3 | 744.23 | 690.94 mm^3 and 653.24 mm^3 and 589.97 mm^3 and 675.03 mm^3 and 699.40 mm^3 and 627.01 mm^3 | 655.93 | 646.47 mm^3 and 649.16 mm^3 and 572.94 mm^3 and 510.69 mm^3 and 613.71 mm^3 and 594.99 mm^3 | 597.99 | 688.69 mm^3 and 617.11 mm^3 and 487.07 mm^3 and 531.80 mm^3 and 432.97 mm^3 and 585.67 mm^3 | 557.22 | 760.84 ± 81.62 | 1030.71 mm^3 and 948.57 mm^3 and 521.81 mm^3 and 674.65 mm^3 and 598.62 mm^3 and 790.69 mm^3 | 760.84 | 588.17 ± 39.56 | selective depletion of pEGFR and pMET expression | 19.95 ± 1.58 | −3.83 | 20.74 ± 0.79 | Mean T/C (percent treated versus control; negative = regression) [1, 10]: 23%; tolerability in words ([3]; 14 day treatment, Compound A 30 mg/kg QD, INC280 10 mg/kg BID): well tolerated for rest of the study; group body weight change ([3]; day 7): −8.5%; group body weight change ([3]; day 8): −5.66%
